Assay results: patent US20250152659A1, “METHOD FOR PREVENTING OR TREATING PARKINSON'S DISEASE” (Suzhou Mingren Pharmaceutical Biotechnology Co., Ltd., priority 2022, published 2025)
Where a SMILES comes first, the peptide text is derived from it. [ ]: non-standard residue; d: D form. pS = N[C@@H](COP(=O)(O)O)C(=O)O

Legend:
[1] = background statement; cited from earlier work
HT-22 cells = test: CCK8 cell viability assay, rotenone toxicity; format: cell-based, mouse; conditions: Rot 2.5 μM and JP1 25, 50, 100 μM, 24 and 48 hours, dose-dependent
Description: (§1) The example is to evaluate the protective effects of JP1 on the viability of mouse hippocampal neuronal cells HT-22 and human […] cells (SH-SYSY) induced by Rotenone (Rot) (CCK8 assay).
(§2) 1) Cell culture and treatment: The human neuroblastoma cell line SH-SYSY and the mouse hippocampal neuron cell line HT-22 were cultured in DMEM medium containing 100 µg/mL streptomycin, 100 U/mL penicillin, and 10% fetal bovine serum at 37° C. in a 5% CO2 environment. The cells were treated with Rotenone (2.5 μM) and JWA targeting peptide JP1 (0, 25, 50, 100 μM) for 24 and 48 hours, respectively. Model cells were tested for cell viability using CCK8 assay, expression levels of inflammasome 3 (NLRP3) and apoptosis related proteins (PARP1, Cleaved caspase1, 3, 9) using Western Blot, and mitochondrial membrane potential (JC1) and intracellular reactive oxygen species (ROS) levels using immunofluorescence staining.
(§3) Cells were inoculated in a 96-well plate at a density of 8000 cells/well for adherence for 24 hours. The culture medium was discarded and the cells were incubated for 24 and 48 hours with different concentrations of the drug. […] The absorbance value was read by an enzyme immunoassay detector at 450 nm. The cell viability (3 parallel samples in each group, and repeat 3 times) was calculated.

SH-SYSY cells = test: CCK8 cell viability assay, rotenone toxicity; format: cell-based, human; conditions: Rot 2.5 μM and JP1 25, 50, 100 μM, 24 and 48 hours, dose-dependent
Description: as §1, §2, §3

## N=C(N)NCCC[C@H](NC(=O)[C@H](Cc1ccccc1)NC(=O)[C@H](CCCNC(=N)N)NC(=O)[C@H](CC(=O)O)NC(=O)[C@H](COP(=O)(O)O)NC(=O)CNC(=O)[C@@H]1CCCN1C(=O)[C@@H](N)Cc1ccccc1)C(=O)NCC(=O)N[C@@H](CC(=O)O)C(=O)O [JP1] (H-FPG[pS]DRFRGD-OH)
[1]
  crossing the blood-brain barrier: can cross the blood-brain barrier
HT-22 cells
  cell viability, protection against cytotoxicity of Rot: significant protective effect
SH-SYSY cells
  cell viability, protection against cytotoxicity of Rot: significant protective effect
